In US7829063B2, “Development of molecular imaging probes for carbonic anhydrase-IX using click chemistry” (Siemens Medical Solutions USA, Inc., priority 2007, dated 2010):
Where two headings read alike, the source gives them in different places.

Molecular target: T1, CA-IX (Homo sapiens, UniProt Q16790)
T1 construct: His tag (C); purchased R&D Systems Inc. 2188-CA; host or cells: mouse myeloma cell line NS0
Assay: CA-IX combinatorial library screening, competitive fluorescence-based assay with dansylamide (DNSA)
Type: binding
Details: sample concentrations 100 nM and 1000 nM, DNSA 200 μM, screening at 1 μM; for inhibition at 1 µM: 1 h
Description: General. CA-IX human recombinant enzyme was expressed with a C-terminal His tag in a mouse myeloma cell line, NS0 (R&D Systems Inc., catalog number 2188-CA). The human red blood cells were obtained from Research Blood Components, LLC. All absorbance measurements were performed on a SPECTRA MAX M2 plate reader at 25° C. The LC/MS analyses were performed on an Agilent 1100 series LC/MSD (SL) using a 30×2.1 mm Zorbax C8 column with a Phenomenex C18 pre-column. Compound detection was accomplished by electrospray mass spectroscopy in positive selected ion mode (LC/MS-SIM). The elution solvents were acetonitrile and water, contained 0.05% TFA. Nuclear magnetic resonance (NMR) spectra were obtained on a Bruker AMX 300 MHz spectrometer or a Varian 400. 19F NMR spectra were recorded on a Bruker AMX 282.35 MHz or a Varian 400 spectrometer. The mass spectra were recorded on an Agilent 1100 series LC/MSD with electrospray mass spectroscopic detection. Flash column chromatography was performed on Merck silica gel (40-63 μm) using the solvent system indicated. The radiochemical and chemical purities were analyzed by RP-HPLC.
General Combinatorial Library Screening Protocol for CA-IX
The CA-IX screening assay was employed for testing libraries derived from the various “anchor” molecules, using ethoxzolamide as a positive control. The assay was performed at a substrate (dansylamide, DNSA) concentration of 200 μM, and sample concentrations of 100 nM and 1000 nM, respectively. A modified competitive fluorescence-based assay (A. Jain, S. G. Huang, G. M. Whitesides, J. Am. Chem. Soc. 1994, 116, 5057) was used to measure CA-IX activity. The enzymatic assay was carried out in a 96-well plate. To the wells, deionized water, 40 μL of phosphate buffer (250 mM, pH 7.4), 2.4 μL of CA-IX (17 μM), and 2 μL or 20 μL of inhibitor (concentration of 100 nM or 1000 nM) were added to achieve a final volume of 180 μL. Reactions were initiated by adding 20 μL DNSA (200 μM) to each well and the plate was incubated at 25° C. for 1 hour. The fluorescence intensities from each well of the plate were then read at 460 nm using a plate reader with an excitation wavelength of 290 nm.

[1] = Table 2, Libraries 4-7, read-out: In Vitro Binding Assay (Library (Screening))
[2] = Table 1, Libraries 1-3, read-out: In Vitro Binding Assay (Library Screening)

Structure (SMILES)	inhibition at 1 µM [1] [%]	inhibition at 1 µM [2] [%]	also measured
CN(C)Cc1ccc(CSCCNC(=O)[C@H](Cc2ccccc2)n2cc(COc3ccc4nc(S(N)(=O)=O)sc4c3)nn2)o1 [DHK-2-54]	< 40	–	–
CC(C)[C@@H](C(=O)NC1CCCCC1)n1cc(COc2ccc3nc(S(N)(=O)=O)sc3c2)nn1 [DHK-2-36]	< 40	–	–
CCOC(=O)C1CCN(C(=O)[C@H](C(C)C)n2cc(-c3ccc(S(N)(=O)=O)cc3)nn2)CC1 [DHK184]	< 40	–	–
NS(=O)(=O)c1nc2ccc(OCc3cn(C4CCN(S(=O)(=O)/C=C/c5ccccc5)CC4)nn3)cc2s1 [DHK143]	–	< 40	–
NS(=O)(=O)c1ccc(C(=O)NCc2cn(C(c3ccccc3)[C@@H](OC/C=C/c3ccccc3)c3ccccc3)nn2)cc1 (stereo partly drawn) [DHK90]	–	< 40	–
NS(=O)(=O)c1nc2ccc(OCc3cn(CC(=O)N4CCN(c5cc(Cl)cc(Cl)c5)CC4)nn3)cc2s1 [DHK141]	–	< 40	–
NS(=O)(=O)c1ccc(C(=O)NCc2cn(CCCCCCO)nn2)cc1 [DHK88]	–	< 40	–
NS(=O)(=O)c1ccc(C(=O)NCc2cn(CC(=O)NC(Cc3cnc[nH]3)C(=O)O)nn2)cc1 (stereo not drawn) [DHK92]	–	< 40	–
CC(C)[C@@H](C(=O)NCCN1CCN(Cc2ccccc2)CC1)n1cc(COc2ccc3nc(S(N)(=O)=O)sc3c2)nn1 [DHK-2-47]	< 40	–	–
CC1CCCN(C(=O)C(C(C)C)n2cc(-c3ccc(S(N)(=O)=O)cc3)nn2)C1 (stereo not drawn) [DHK15]	–	< 40	–
Cc1ccnc(NC(=O)[C@H](Cc2ccccc2)n2cc(COc3ccc4nc(S(N)(=O)=O)sc4c3)nn2)c1 [DHK115]	–	< 40	–
CCOC(=O)C(Cc1ccccc1)NC(=O)[C@H](C(C)C)n1cc(COc2ccc3nc(S(N)(=O)=O)sc3c2)nn1 (stereo partly drawn) [DHK-2-32]	< 40	–	–
CCOC(=O)C(NC(=O)[C@H](C(C)C)n1cc(COc2ccc3nc(S(N)(=O)=O)sc3c2)nn1)C(C)C (stereo partly drawn) [DHK-2-33]	< 40	–	–
NS(=O)(=O)c1ccc(-c2cn([C@@H](Cc3ccccc3)C(=O)NC3c4ccccc4C[C@@H]3O)nn2)cc1 (stereo partly drawn) [DHK-2-19]	< 40	–	–
COC(=O)C(C)NC(=O)[C@H](C(C)C)n1cc(COc2ccc3nc(S(N)(=O)=O)sc3c2)nn1 (stereo partly drawn) [DHK-2-34]	< 40	–	–
CCOC(=O)C1CCN(C(=O)[C@H](Cc2ccccc2)n2cc(-c3ccc(S(N)(=O)=O)cc3)nn2)CC1 [DHK-2-17]	< 40	–	–
CC(C)(C)c1cc(C(=O)Cn2cc(CNC(=O)c3ccc(S(N)(=O)=O)cc3)nn2)cc(C(C)(C)C)c1O [DHK59]	–	< 40	–
CN(Cc1ccccc1)C(=O)[C@H](Cc1ccccc1)n1cc(COc2ccc3nc(S(N)(=O)=O)sc3c2)nn1 [DHK-2-53]	< 40	–	–
NS(=O)(=O)c1ccc(C(=O)NCc2cn(CCn3c(=O)[nH]c4ccccc4c3=O)nn2)cc1 [DHK93]	–	< 40	–

Structure (SMILES)	inhibition at 1 µM [1] [%]	inhibition at 1 µM [2] [%]	also measured
CCCCCC[C@H](O)[C@@H](O)c1ccc(Cn2cc(CNC(=O)c3ccc(S(N)(=O)=O)cc3)nn2)cc1 [DHK85]	–	< 40	–
CC(C)[C@@H](C(=O)N1CCN(c2ccccn2)CC1)n1cc(COc2ccc3nc(S(N)(=O)=O)sc3c2)nn1 [DHK-2-31]	< 40	–	–
NS(=O)(=O)c1ccc(-c2cn(CCOc3ccc4ccc(=O)oc4c3)nn2)cc1 [DHK63]	–	< 40	–
CC(C)[C@@H](C(=O)NCc1nc2ccccc2n1C)n1cc(-c2ccc(S(N)(=O)=O)cc2)nn1 [DHK189]	< 40	–	–
NS(=O)(=O)c1nc2ccc(OCc3cn([C@@H](Cc4ccccc4)C(=O)NCc4ccc(-c5ccccn5)s4)nn3)cc2s1 [DHK-2-56]	< 40	–	–
CC(C)[C@@H](C(=O)NC1c2ccccc2C[C@@H]1O)n1cc(-c2ccc(S(N)(=O)=O)cc2)nn1 (stereo partly drawn) [DHK186]	< 40	–	–
C=CC1C[N@@]2CCC1CC2[C@@H](c1ccnc2ccc(OC)cc12)n1cc(CNC(=O)c2ccc(S(N)(=O)=O)cc2)nn1 (stereo partly drawn) [DHK87]	–	< 40	–
CCOC(=O)[C@@H](Cc1ccccc1)NC(=O)[C@H](C(C)C)n1cc(-c2ccc(S(N)(=O)=O)cc2)nn1 [DHK175]	< 40	–	–
NS(=O)(=O)c1nc2ccc(OCc3cn(CCn4c(=O)[nH]c5ccccc5c4=O)nn3)cc2s1 [DHK140]	–	< 40	–
CC(C)[C@@H](C(=O)N1CCN(CCO)CC1)n1cc(-c2ccc(S(N)(=O)=O)cc2)nn1 [DHK185]	< 40	–	–
NS(=O)(=O)c1ccc(-c2cn([C@@H](Cc3ccccc3)C(=O)N3CCC[C@@H]3CO)nn2)cc1 [DHK-2-6]	< 40	–	–
CCCOC(=O)c1ccc(NC(=O)Cn2cc(-c3ccc(S(N)(=O)=O)cc3)nn2)cc1 [DHK3]	–	< 40	–
NS(=O)(=O)c1nc2ccc(OCc3cn([C@@H](Cc4ccccc4)C(=O)N4CCC[C@@H]4CO)nn3)cc2s1 [DHK-2-57]	< 40	–	–
Cn1c(CNC(=O)[C@H](Cc2ccccc2)n2cc(-c3ccc(S(N)(=O)=O)cc3)nn2)nc2ccccc21 [DHK-2-22]	< 40	–	–
CC(C)[C@@H](C(=O)NCc1ccco1)n1cc(CNC(=O)c2ccc(S(N)(=O)=O)cc2)nn1 [DHK54]	–	< 40	–
NS(=O)(=O)c1ccc(-c2cn(CCN3CCOCC3)nn2)cc1 [DHK5]	–	< 40	–
CC(C)[C@@H](C(=O)NCc1cc(F)ccc1F)n1cc(-c2ccc(S(N)(=O)=O)cc2)nn1 [DHK11]	–	< 40	–
NS(=O)(=O)c1nc2ccc(OCc3cn([C@@H](Cc4ccccc4)C(=O)N4CCN(CCO)CC4)nn3)cc2s1 [DHK-2-69]	< 40	–	–
NS(=O)(=O)c1nc2ccc(OCc3cn([C@@H](Cc4ccccc4)C(=O)NCC4COc5ccccc5O4)nn3)cc2s1 (stereo partly drawn) [DHK-2-71]	–	–	In Vitro Binding Assay (Library Screening) (Table 2, Libraries 4-7): √

Structure (SMILES)	inhibition at 1 µM [1] [%]	inhibition at 1 µM [2] [%]	also measured
COC(=O)C(Cc1ccc(C(=O)O)cc1)n1cc(COc2ccc3nc(S(N)(=O)=O)sc3c2)nn1 (stereo not drawn) [DHK129]	–	< 40	–
NS(=O)(=O)c1ccc(C(=O)NCc2cn(C3C(O)C(O)OC3C(O)CO)nn2)cc1 (stereo not drawn) [DHK112]	–	< 40	–
CC(C)[C@@H](C(=O)N(C)Cc1ccccc1)n1cc(-c2ccc(S(N)(=O)=O)cc2)nn1 [DHK166]	< 40	–	–
NS(=O)(=O)c1nc2ccc(OCc3cn([C@@H](Cc4ccccc4)C(=O)N4CCC(N5CCCC5)CC4)nn3)cc2s1 [DHK-2-72]	< 40	–	–
NS(=O)(=O)c1nc2ccc(OCc3cn([C@@H](Cc4ccccc4)C(=O)NCCN4CCN(Cc5ccccc5)CC4)nn3)cc2s1 [DHK-2-74]	< 40	–	–
CC(C)[C@@H](C(=O)NCC1COc2ccccc2O1)n1cc(COc2ccc3nc(S(N)(=O)=O)sc3c2)nn1 (stereo partly drawn) [DHK-2-44]	–	–	In Vitro Binding Assay (Library Screening) (Table 2, Libraries 4-7): √
CC(C)[C@@H](C(=O)N1CCN(c2ncccn2)CC1)n1cc(COc2ccc3nc(S(N)(=O)=O)sc3c2)nn1 [DHK-2-28]	< 40	–	–
Cc1onc(-c2ccccc2)c1CNC(=O)[C@H](Cc1ccccc1)n1cc(COc2ccc3nc(S(N)(=O)=O)sc3c2)nn1 [DHK-2-66]	–	–	In Vitro Binding Assay (Library Screening) (Table 2, Libraries 4-7): √ √
CC(C)[C@@H](C(=O)N1CCC[C@@H]1CO)n1cc(COc2ccc3nc(S(N)(=O)=O)sc3c2)nn1 [DHK-2-30]	< 40	–	–
CC(C)[C@@H](C(=O)NCC1CC1)n1cc(-c2ccc(S(N)(=O)=O)cc2)nn1 [DHK180]	< 40	–	–
CC(C)[C@@H](C(=O)O)n1cc(-c2ccc(S(N)(=O)=O)cc2)nn1 [DHK66]	–	< 40	–
Cc1ccc(CNC(=O)C(C(C)C)n2cc(CNC(=O)c3ccc(S(N)(=O)=O)cc3)nn2)cc1F (stereo not drawn) [DHK49]	–	< 40	–
Cc1ccc(CNC(=O)[C@@H](C(C)C)n2cc(-c3ccc(S(N)(=O)=O)cc3)nn2)cc1F [DHK20]	–	< 40	–
CCCOC(=O)c1ccc(NC(=O)Cn2cc(COc3ccc4nc(S(N)(=O)=O)sc4c3)nn2)cc1 [DHK130]	–	< 40	–
NS(=O)(=O)c1ccc(C(=O)NCc2cn(C3CCN(S(=O)(=O)/C=C/c4ccccc4)CC3)nn2)cc1 [DHK96]	–	< 40	–
CCOC(=O)[C@@H](NC(=O)[C@H](C(C)C)n1cc(-c2ccc(S(N)(=O)=O)cc2)nn1)C(C)C [DHK176]	< 40	–	–
CCCCCCCCCCC(C(=O)O)n1cc(CNC(=O)c2ccc(S(N)(=O)=O)cc2)nn1 (stereo not drawn) [DHK110]	–	< 40	–
CCOC(=O)[C@@H](NC(=O)[C@H](Cc1ccccc1)n1cc(-c2ccc(S(N)(=O)=O)cc2)nn1)C(C)C [DHK-2-9]	< 40	–	–
NS(=O)(=O)c1ccc(-c2cn(C3C(O)C(O)OC3C(O)CO)nn2)cc1 (stereo not drawn) [DHK111]	–	< 40	–
